In assay [1] the test system is db/db mice. The experiment in a line: Daily i.p. injection of VBIT-4 in db/db and C57/BL mice (blood glucose, IPGTT). Format: in vivo, mouse. The procedure: 5 weeks old db/db mice and control (C57/bl) (Janvier Laboratory, France), weighing 18-25 g, were used throughout the experiments. They were given a standard pellet diet (B&K) and tap water ad libitum. The experimental procedures were approved by the Ethics Committee for Animal Research at Lund University. Isolation of pancreatic islets was performed by retrograde injection of a collagenase solution via the bile-pancreatic duct and islets were then collected under a stereomicroscope at room temperature.
IPGTTs were performed in db/db and c57/bl mice after treatment with VDAC1 blocker (daily intraperitoneal injection with VBIT-4, […]) for 5 weeks. Prior to IPGTT test, the mice were fasted for 4 h. Glucose was dissolved in 0.9% NaCl and 2.0 g glucose/kg body weight was injected intraperitoneally. Serial blood sampling thereafter from vena saphena was performed at 0, 5, 15, 30 and 90 min as previously described elsewhere 35. Blood glucose was analyzed using glucose oxidase method and plasma insulin was analyzed by ELISA (Salehi, A. et al. 2008. PLoS ONE 3, e2165; Rosengren, A. H. et al. 2010. Science 327, 217-220). Total volume load was 0.3 ml. The Cumulative (area under the curve) changes in plasma glucose or insulin were calculated by subtracting the recorded values from basal (time 0).

Another assay relates to islets from T2D donors. The assay is described as follows: ATP content and GSIS in islets from T2D donors, acute addition of VDAC1 inhibitors. The format is cell-based, human. Conditions: for GSIS: T2D islets, acute addition 1 h (FIG. 6f); for islet ATP content: islets from 5 T2D donors and one IGT donor, 1 h, at 1 and 16.7 mM glucose (FIG. 6e). An excerpt:
(§1) Human pancreatic islets were obtained through collaboration between Human Tissue Laboratory within Lund University Diabetes Centre (LUDC) and the Nordic Network for Clinical Islet Transplantation (Prof. Olle Korsgren, Uppsala University, Sweden). Donors were grouped according to HbA1c i.e. less than 6% (ND), between 6% and 6.5% (IGT), higher than 6.5% or history of diabetes (T2D). The human islets (70-90% purity) had been cultured in CMRL 1066 (ICN Biomedicals, Costa Mesa, Calif.) supplemented with 10 mM HEPES, 2 mM L-glutamine, […] gentamicin, […] fungizone (Gibco, BRL, Gaithersburg, Md.), 20 μg/ml ciprofloxacin (Bayer Healthcare, Leverkusen, Germany) and 10 mM nicotinamide at 37° C. (5% CO2) for 1 to 5 days prior to the arrival in the laboratory. The islets were then hand-picked under stereomicroscope prior to use. All procedures using human islets were approved by the ethical committees at Uppsala and Lund Universities, Sweden.
Human pancreatic islets were collected under a stereomicroscope at room temperature and cultured at 5.5 or 20 mM glucose in the absence or presence of test agents for 72 h. Thereafter the islets were washed and preincubated for 30 min at 37° C. in Krebs Ringer bicarbonate buffer, pH 7.4, supplemented with N-2 hydroxyethylpiperazine-N′-2-ethanesulfonic acid (10 mM), 0.1% bovine serum albumin, and 1 mM glucose. Each incubation vial contained 12 islets in 1.0 ml KRB buffer solution and treated with 95% O2 and 5% CO2 to obtain constant pH and oxygenation. After preincubation, the buffer was changed to a medium containing either 1 mM or 16.7 mM glucose. The islets were then incubated for 1 h at 37° C. in a metabolic shaker (30 cycles per min). Immediately after incubation an aliquot of the medium was removed for analysis of insulin and the islets were incubated in acid-ethanol for insulin content determination by radioimmunoassay.
ATP release from isolated mouse or human islets or from INS-1 cells after transfection with mitochondrial targeted VDAC1 (mtVDAC1) or plasma membrane targeted VDAC1 (plVDAC1) plasmids was determined using a luminometric assay kit according to manufacturer's recommendation (Biovision). After incubation of islets (50/vial) or INS-1 cells for 60 min, an aliquot of the media was removed for subsequent measurements of released ATP. Then the islets or INS-1 cells were washed 3 times and the lysates were used for measurements of ATP and protein contents followed the protocol provided by the vendor.

For another assay, the system named is human ND islets. The assay is described as follows: GSIS in non-diabetic human islets cultured at 5 or 20 mM glucose. The format is cell-based.
Description: as §1
Human pancreatic islets were collected under a stereomicroscope at room temperature and cultured at 5.5 or 20 mM glucose in the absence or presence of test agents for 72 h. Thereafter the islets were washed and preincubated for 30 min at 37° C. in Krebs Ringer bicarbonate buffer, pH 7.4, supplemented with N-2 hydroxyethylpiperazine-N′-2-ethanesulfonic acid (10 mM), 0.1% bovine serum albumin, and 1 mM glucose. […]

In assay [2] the test system is VDAC1 mRNA in human islets. The assay is described as follows: VDAC1 mRNA in non-diabetic human islets cultured under glucotoxic condition. The format is cell-based. Conditions: 72 h at 20 mM glucose, metformin 20 μM (FIG. 1d).
Description: Total RNA from handpicked mouse islets, human donor islets (Diabetic and non-diabetic) or [MUT] cells were extracted using RNAeasy (Qiagen, Hilden, Germany). […] Concentration and purity of total RNA was measured with a NanoDrop ND-1000 spectrophotometer (A260/A280>1.9 and A260/A230>1.4) (NanoDrop Technologies, Wilmington, Del.) and RNA Quality Indicator (RQI) higher than 8.0 (Experion Automated Electrophoresis, Bio-Rad, USA) was considered to be high-quality total RNA preparations. […] The qPCR was carried out as follows: 50° C. for 2 minutes, 95° C. for 10 minutes, 40 cycles of 95° C. for 15 seconds, and 60° C. for 1 minute. […] VDAC1 and VDAC2 mRNA and protein level were investigated by both qPCR and Western blotting relative to the expression of GAPDH and β-actin respectively.
Another assay concerns the target T1, plVDAC1 (Mus musculus, UniProt Q60932).
T1 construct: expressed in transfected cells; host or cells: INS-1 832/13 cells (rat insulinoma), transient transfection; plasmid a gift from Dr. R. Buettner
The assay is described as follows: Whole-cell patch-clamp membrane conductance in INS-1 cells. Format: cell-based. Conditions: superfusion with metformin 20 μM (FIG. 4f). As for the experimental part:
Whole-cell currents in INS-1 832/13 cells were evoked and recorded by EPC10 amplifier and Pulse software (HEKA, Lambrecht/Pfalz, Germany) as previously described (Buda P. et al. 2013. PLoS One. 8(5):e64462) with the temperature maintained at 32° C. The cells were continuously perfused with extracellular solution containing 118 mM NaCl, 20 mM tetraethylammonium chloride, 5.6 mM KCl, 2.6 mM CaCl2), 1.2 mM MgCl2, 5 mM HEPES and 5 mM glucose (pH 7.4 with NaOH) in the presence of 100 μM tolbutamide (T0891, Sigma-Aldrich). The intracellular solution consisted of 125 mM Cs-glutamate, 10 mM CsCl, 10 mM NaCl, 1 mM MgCl2, 5 mM HEPES, 3 mM Mg-ATP, 0.1 mM cAMP and 0.05 mM EGTA (pH 7.2 with CsOH). […] Conductance was measured by applying 200-ms voltage ramps from −90 mV to −50 mV. […] Data presented are from […] after the addition when steady-state was reached.
Conductance measurements were performed after at least 5 minutes exposure, and the cell dish was replaced no later than after 1 hour of perfusion. No wash-out experiments were performed in this experiment.

Assay [3] relates to db/db mice. Conditions: Cao K, et al. 2014; cited from earlier work.
In the next assay the test system is human islet cells. The assay is described as follows: Cellular reductive capacity (MTS) in human islets. Format: cell-based. Conditions: VDAC1 antibody 10 nM. As for the experimental part: The reductive capacity of cells was measured either on INS-1 cells or dispersed human islet cells when the INS-1 cells or islets were subjected to 5 or 20 mM glucose for 72 h in the absence or presence of test agents or after down-regulation of VDAC1 and VDAC2 as described elsewhere (35, 40). Measurement of reductive capacity was performed using the MTS reagent kit according to the manufacturer's instructions (Promega). Apoptosis was measured with the Cell Death Kit (Roche Diagnostics), which quantifies the appearance of cytosolic nucleosomes.

The structures appear in SMILES notation.

T1 sequence (Q60932 whole entry): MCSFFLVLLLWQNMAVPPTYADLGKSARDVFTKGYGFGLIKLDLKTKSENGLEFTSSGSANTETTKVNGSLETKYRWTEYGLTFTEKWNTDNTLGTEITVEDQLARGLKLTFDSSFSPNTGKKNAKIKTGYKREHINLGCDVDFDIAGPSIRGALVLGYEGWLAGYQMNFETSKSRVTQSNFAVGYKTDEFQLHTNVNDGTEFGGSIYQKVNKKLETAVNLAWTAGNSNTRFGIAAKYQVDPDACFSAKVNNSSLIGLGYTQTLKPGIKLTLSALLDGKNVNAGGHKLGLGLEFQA

Take `O=C(CC(CO)N1CCN(c2ccc(OC(F)(F)F)cc2)CC1)Nc1ccc(Cl)cc1` (racemic) [VBIT-4, N-(4-chlorophenyl)-4-hydroxy-3-(4-(4-(trifluoromethoxy)phenyl)-piperazin-1-yl)butanamide]: the “effects in animals with severe diabetes” value in the assay on db/db mice [1] (14-week old db/db animals with severe diabetes, data not shown) is given as “only marginal effects”. Further, the “effects in control mice” value with db/db mice [1] (C57/BL mice, daily i.p. VBIT-4 from age 6 to 11 weeks) was “no effects”. For the same molecule, the “glucose tolerance (IPGTT, 2 g/kg)” value in the assay on db/db mice [1] (db/db mice after 5 weeks VBIT-4 i.p. (FIG. 7g, 7h)) is recorded as “markedly improved”. Also, the “GSIS in vivo and in isolated islets” value in the assay on db/db mice [1] (db/db mice after 5 weeks VBIT-4 i.p. (FIG. 7i, 7k, 7l)) is listed as “markedly improved”. In addition, the “blood glucose concentrations upon VBIT-4 cessation” value in the assay on db/db mice [1] (db/db mice followed after 5 weeks treatment (FIG. 7f)) is on record as “rose gradually over several weeks”. In addition, the “development of hyperglycemia (blood glucose)” value with db/db mice [1] (db/db mice, daily i.p. 25 mg/kg from age 6 to 11 weeks, vs vehicle (FIG. 7f)) is “prevented the development of the severe hyperglycemia”. Besides, the “water consumption and urine production” value in the assay on db/db mice [1] (db/db mice, early administration, data not shown) is “prevented increases in water consumption and urine production”. Also, in the assay on islets from T2D donors, the GSIS entry is “increased in parallel with the improved ATP generation” and the “islet ATP content” value is listed as “increased islet ATP content”.
As for `CN(C)C(=N)N=C(N)N` [metformin], the “GSIS after culture at 5 mM glucose” value in the assay on human ND islets (72 h culture with agent (FIG. 6d)) is “unaffected”. Further, the “GSIS after culture at 20 mM glucose” value in the assay on human ND islets (72 h culture with agent, then 1 h at 1G or 16.7G (FIG. 6d)) is recorded as “prevented the attenuation of GSIS”. In addition, the “VDAC1 mRNA” value in assay [2] is “prevented the increase in VDAC1 mRNA”. Also, at plVDAC1, the “elevated conductance in plVDAC1-transformed cells” value was “abrogating the elevated conductance” and the “membrane currents in control INS-1 cells” value is given as “did not affect membrane currents”. The “severity of hyperglycemia at onset of the disease” value with db/db mice [3] was “attenuates the severity of hyperglycemia”. Besides, the “cellular reductive capacity (metabolism) in T2D islets” value in the assay with human islet cells (metformin 20 μM (FIG. 6h)) was “markedly improved metabolism”. In the assay with human islet cells (human islets, metformin 20 μM (FIG. 6g)), the “cellular reductive capacity after culture at 5 mM glucose” value is reported as “no effect”. Further, in the assay on islets from T2D donors, the GSIS entry is given as “increased in parallel with the improved ATP generation” and the “islet ATP content” value is recorded as “increased islet ATP content”.

The record behind these values is patent US20210130291A1, “METHODS FOR TREATING DIABETES USING VDAC1 INHIBITORS” (THE NATIONAL INSTITUTE FOR BIOTECHNOLOGY IN THE NEGEV LTD., priority 2016, published 2021).
